In brackets after ≈: the same amount, converted by molar mass. Like-named read-outs stand apart in the source and are kept apart here.
Legend:
[1] = biological target: human (hACC2) (Homo sapiens, UniProt O00763); test: In vitro ACC inhibition assay (ADP-Glo), hACC2; format: biochemical; conditions: 5 nM ACC2, 20 μM ATP, 20 μM acetyl-CoA
Procedure: The detailed procedure is as follows. […] 10 μL ADP glo reagent was added. […] 20 μL kinase detection reagent was added.

[2] = tested on: C. albicans; test: Antifungal Activity Assay (broth microtiter MIC), C. albicans; format: cell-based, Candida albicans; conditions: Candida albicans, ATCC90028, 48 h
Summary of the method: (§1)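 Endpoint: lowest concentration visibly inhibiting growth relative to control after 48 h. Inoculum of 2.5×10^3 CFU/mL final in RPMI 1640+MOPS, prepared from overnight 35° C agar cultures; test compounds diluted in water to 128 μg/mL before plating.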

[3] = tested on: C. krusei; test: Antifungal Activity Assay (broth microtiter MIC), C. krusei; format: cell-based, Candida krusei; conditions: Pichia kudriavzevii, ATCC6258, 48 h
Summary of the method: as §1

[4] = tested on: C. parapsilosis; test: Antifungal Activity Assay (broth microtiter MIC), C. parapsilosis; format: cell-based, Candida parapsilosis; conditions: Lodderomyces parapsilosis, ATCC22019, 48 h
Summary of the method: as §1

[5] = tested on: Collectotrichum graminicola (Cg); test: Growth inhibition assay of fungal pathogens, Cg; format: cell-based; conditions: 48 h
Summary of the method: (§2)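 Inhibition percentages reflect 48 h OD600 and visual scores relative to a 2% DMSO control. Test concentrations were 50, 10, 2 ppm or 2, 0.4, 0.08 ppm final, applied to spores in 17% V8 medium.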

[6] = tested on: Diplodia maydis (Dm); test: Growth inhibition assay of fungal pathogens, Dm; format: cell-based; conditions: Stenocarpella maydis, 48 h
Summary of the method: as §2

[7] = tested on: Fusarium moniliforme (Fm); test: Growth inhibition assay of fungal pathogens, Fm; format: cell-based; conditions: for IC90: Fusarium verticillioides, 48 h, read-out: Concentration at 90% Inhibition Fm
Summary of the method: as §2

[8] = tested on: Fusarium virguliforme (Fv); test: Growth inhibition assay of fungal pathogens, Fv; format: cell-based; conditions: 48 h
Summary of the method: as §2

[9] = tested on: Phytophthora capsici (Pc); test: Growth inhibition assay of fungal pathogens, Pc; format: cell-based; conditions: 48 h
Summary of the method: as §2

[10] = tested on: Rhizoctonia solani (Rs); test: Growth inhibition assay of fungal pathogens, Rs; format: cell-based; conditions: 48 h
[11] = tested on: Septoria tritici (St); test: Growth inhibition assay of fungal pathogens, St; format: cell-based; conditions: Zymoseptoria tritici, 48 h
Summary of the method: as §2

[12] = Fusarium moniliforme, growth inhibition at 48 hours vs 2% DMSO control

Sequence of human (hACC2) (O00763 whole entry): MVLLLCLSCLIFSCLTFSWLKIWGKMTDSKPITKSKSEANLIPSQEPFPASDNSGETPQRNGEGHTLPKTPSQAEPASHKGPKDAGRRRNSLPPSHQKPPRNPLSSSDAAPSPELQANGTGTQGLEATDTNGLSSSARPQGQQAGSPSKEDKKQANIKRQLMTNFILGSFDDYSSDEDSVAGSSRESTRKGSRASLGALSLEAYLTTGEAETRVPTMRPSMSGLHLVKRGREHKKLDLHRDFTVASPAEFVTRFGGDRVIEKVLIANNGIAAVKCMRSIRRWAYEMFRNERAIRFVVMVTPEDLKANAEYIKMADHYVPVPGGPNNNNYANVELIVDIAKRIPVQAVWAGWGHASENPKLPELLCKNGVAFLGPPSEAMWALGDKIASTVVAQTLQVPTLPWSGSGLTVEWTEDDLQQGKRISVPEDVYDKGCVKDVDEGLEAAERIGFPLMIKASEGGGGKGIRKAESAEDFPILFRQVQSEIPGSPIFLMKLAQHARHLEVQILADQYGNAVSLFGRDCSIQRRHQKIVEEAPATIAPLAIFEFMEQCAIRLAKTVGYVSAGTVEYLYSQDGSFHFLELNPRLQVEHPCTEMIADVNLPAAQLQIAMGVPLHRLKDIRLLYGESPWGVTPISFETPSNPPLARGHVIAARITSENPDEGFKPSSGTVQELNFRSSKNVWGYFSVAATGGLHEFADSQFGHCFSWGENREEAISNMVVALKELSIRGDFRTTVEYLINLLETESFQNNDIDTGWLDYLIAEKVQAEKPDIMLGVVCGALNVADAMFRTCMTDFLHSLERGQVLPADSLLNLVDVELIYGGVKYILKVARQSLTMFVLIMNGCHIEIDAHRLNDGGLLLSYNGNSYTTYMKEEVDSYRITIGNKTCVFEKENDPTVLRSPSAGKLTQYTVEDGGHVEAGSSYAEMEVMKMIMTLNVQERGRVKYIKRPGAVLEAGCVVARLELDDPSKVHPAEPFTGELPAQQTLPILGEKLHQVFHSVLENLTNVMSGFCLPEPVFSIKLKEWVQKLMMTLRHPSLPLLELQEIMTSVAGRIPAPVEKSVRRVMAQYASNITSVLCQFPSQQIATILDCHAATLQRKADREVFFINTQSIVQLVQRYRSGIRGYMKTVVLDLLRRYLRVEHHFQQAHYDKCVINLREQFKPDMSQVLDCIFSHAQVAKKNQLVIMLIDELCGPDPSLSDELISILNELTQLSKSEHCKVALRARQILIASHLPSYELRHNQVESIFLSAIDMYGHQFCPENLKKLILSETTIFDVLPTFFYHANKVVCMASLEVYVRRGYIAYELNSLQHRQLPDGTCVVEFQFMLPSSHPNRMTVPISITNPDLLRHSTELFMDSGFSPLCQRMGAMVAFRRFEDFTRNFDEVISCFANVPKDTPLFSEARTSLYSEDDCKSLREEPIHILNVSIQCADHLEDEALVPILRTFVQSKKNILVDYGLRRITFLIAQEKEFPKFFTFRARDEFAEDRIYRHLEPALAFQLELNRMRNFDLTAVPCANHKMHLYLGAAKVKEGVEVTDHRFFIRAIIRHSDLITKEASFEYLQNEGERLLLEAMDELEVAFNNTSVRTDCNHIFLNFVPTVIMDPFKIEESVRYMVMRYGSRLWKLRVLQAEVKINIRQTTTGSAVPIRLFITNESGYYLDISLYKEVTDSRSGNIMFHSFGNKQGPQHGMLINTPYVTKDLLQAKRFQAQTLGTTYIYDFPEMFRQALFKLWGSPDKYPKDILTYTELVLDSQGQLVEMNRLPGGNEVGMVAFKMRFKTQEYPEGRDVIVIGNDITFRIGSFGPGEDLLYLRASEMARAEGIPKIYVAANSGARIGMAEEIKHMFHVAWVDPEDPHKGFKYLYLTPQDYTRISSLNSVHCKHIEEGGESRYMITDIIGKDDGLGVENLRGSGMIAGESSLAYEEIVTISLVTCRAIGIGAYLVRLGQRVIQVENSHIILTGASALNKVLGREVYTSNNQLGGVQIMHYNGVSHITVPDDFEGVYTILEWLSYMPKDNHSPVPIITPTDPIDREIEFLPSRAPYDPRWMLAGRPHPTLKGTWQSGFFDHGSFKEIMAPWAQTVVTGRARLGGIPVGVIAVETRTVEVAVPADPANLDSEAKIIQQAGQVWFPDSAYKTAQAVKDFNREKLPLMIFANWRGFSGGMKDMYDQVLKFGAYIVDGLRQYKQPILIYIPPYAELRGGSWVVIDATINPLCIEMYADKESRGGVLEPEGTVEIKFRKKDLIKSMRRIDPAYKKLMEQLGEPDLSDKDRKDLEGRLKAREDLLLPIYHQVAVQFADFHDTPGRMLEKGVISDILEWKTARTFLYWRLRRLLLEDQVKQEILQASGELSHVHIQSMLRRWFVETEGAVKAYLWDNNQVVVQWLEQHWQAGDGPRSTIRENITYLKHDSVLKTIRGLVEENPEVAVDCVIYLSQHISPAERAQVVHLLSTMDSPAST

## COc1ccc(F)cc1[C@H](Cn1c(=O)n(C(C)(C)C(=O)N2CCCCC2)c(=O)c2c(C)c(-n3nccn3)sc21)OC(C)C [Compound I-6, (R)-1-(2-(5-fluoro-2-methoxyphenyl)-2-isopropoxyethyl)-5-methyl-3-(2-methyl-1-oxo-1-(piperidin-1-yl)propan-2-yl)-6-(2H-1,2,3-triazol-2-yl)thieno[2,3-d]pyrimidine-2,4(1H,3H)-dione]
[1]; Table 2a
  IC50: 10 to 40 nM
[1]; Table 2b, additional results
  IC50: 10 to 40 nM
[2]; read-out: MIC, C. albicans ATCC 90028, Table 3a, 3 replicates, MIC recorded at 48 h
  MIC: 0.25 to 1 µg/mL (≈ 0.408 to 1.63 µM)
[2]; read-out: MIC, C. albicans ATCC 90028, Table 3b (additional results), 3 replicates, MIC recorded at 48 h
  MIC: 0.25 to 1 µg/mL (≈ 0.408 to 1.63 µM)
[3]; read-out: MIC, C. krusei ATCC 6258, Table 3a, 3 replicates, MIC recorded at 48 h
  MIC: 0.25 to 1 µg/mL (≈ 0.408 to 1.63 µM)
[3]; read-out: MIC, C. krusei ATCC 6258, Table 3b (additional results), 3 replicates, MIC recorded at 48 h
  MIC: 0.25 to 1 µg/mL (≈ 0.408 to 1.63 µM)
[4]; read-out: MIC, C. parapsilosis ATCC 22019, Table 3a, 3 replicates, MIC recorded at 48 h
  MIC: 1.1 to 2 µg/mL (≈ 1.8 to 3.26 µM)
[4]; read-out: MIC, C. parapsilosis ATCC 22019, Table 3b (additional results), 3 replicates, MIC recorded at 48 h
  MIC: 1.01 to 2 µg/mL (≈ 1.65 to 3.26 µM)
[5]; read-out: Concentration at 90% Inhibition Cg, Collectotrichum graminicola, growth inhibition at 48 hours vs 2% DMSO control
  IC90: 0.08 µg/mL (≈ 0.131 µM)
[5]; read-out: Concentration at 90% Inhibition Cg, Collectotrichum graminicola, growth inhibition vs 2% DMSO control at 48 hours
  IC90: 0.08 µg/mL (≈ 0.131 µM)
[6]; read-out: Concentration at 90% Inhibition Dm, Diplodia maydis, growth inhibition at 48 hours vs 2% DMSO control
  IC90: 0.08 µg/mL (≈ 0.131 µM)
[6]; read-out: Concentration at 90% Inhibition Dm, Diplodia maydis, growth inhibition vs 2% DMSO control at 48 hours
  IC90: 0.08 µg/mL (≈ 0.131 µM)
[7]; [12]
  Concentration at 90% Inhibition Fm: AA (compound concentration of 0.08 ppm at 90% inhibition of fungal pathogens)
[7]
  IC90: 0.08 µg/mL (≈ 0.131 µM)
[8]; read-out: Concentration at 90% Inhibition Fv, Fusarium virguliforme, growth inhibition at 48 hours vs 2% DMSO control
  IC90: 0.08 µg/mL (≈ 0.131 µM)
[8]; read-out: Concentration at 90% Inhibition Fv, Fusarium virguliforme, growth inhibition vs 2% DMSO control at 48 hours
  IC90: 0.08 µg/mL (≈ 0.131 µM)
[9]; read-out: Concentration at 90% Inhibition Pc, Phytophthora capsici, growth inhibition at 48 hours vs 2% DMSO control
  IC90: > 50 µg/mL
[9]; read-out: Concentration at 90% Inhibition Pc, Phytophthora capsici, growth inhibition vs 2% DMSO control at 48 hours
  IC90: > 50 µg/mL
[10]; read-out: Concentration at 90% Inhibition Rs, Rhizoctonia solani, mycelial plugs, growth inhibition at 48 hours vs 2% DMSO control
  IC90: 0.08 µg/mL (≈ 0.131 µM)
[10]; read-out: Concentration at 90% Inhibition Rs, Rhizoctonia solani, mycelial plugs, growth inhibition vs 2% DMSO control at 48 hours
  IC90: 0.08 µg/mL (≈ 0.131 µM)
[11]; read-out: Concentration at 90% Inhibition St, Septoria tritici, growth inhibition at 48 hours vs 2% DMSO control
  IC90: 2 µg/mL (≈ 3.26 µM)
[11]; read-out: Concentration at 90% Inhibition St, Septoria tritici, growth inhibition vs 2% DMSO control at 48 hours
  IC90: 10 µg/mL (≈ 16.3 µM)

## COc1ccc(F)cc1[C@H](Cn1c(=O)n(C(C)(C)C(=O)N2CCCC2)c(=O)c2c(C)c(-n3nccn3)sc21)OC(C)C [Compound I-7, (R)-1-(2-(5-fluoro-2-methoxyphenyl)-2-isopropoxyethyl)-5-methyl-3-(2-methyl-1-oxo-1-(pyrrolidin-1-yl)propan-2-yl)-6-(2H-1,2,3-triazol-2-yl)thieno[2,3-d]pyrimidine-2,4(1H,3H)-dione]
[1]; Table 2a
  IC50: 5 to 10 nM
[1]; Table 2b, additional results
  IC50: 5 to 10 nM
[2]; Table 3a, ATCC 90028, 3 replicates, MIC recorded at 48 h, read-out: MIC, C. albicans ATCC 90028
  MIC: 1.1 to 2 µg/mL (≈ 1.84 to 3.34 µM)
[2]; Table 3b (additional results), ATCC 90028, 3 replicates, MIC recorded at 48 h, read-out: MIC, C. albicans ATCC 90028
  MIC: 0.25 to 1 µg/mL (≈ 0.418 to 1.67 µM)
[3]; Table 3a, ATCC 6258, 3 replicates, MIC recorded at 48 h, read-out: MIC, C. krusei ATCC 6258
  MIC: 0.25 to 1 µg/mL (≈ 0.418 to 1.67 µM)
[3]; Table 3b (additional results), ATCC 6258, 3 replicates, MIC recorded at 48 h, read-out: MIC, C. krusei ATCC 6258
  MIC: 0.25 to 1 µg/mL (≈ 0.418 to 1.67 µM)
[4]; Table 3a, ATCC 22019, 3 replicates, MIC recorded at 48 h, read-out: MIC, C. parapsilosis ATCC 22019
  MIC: 1.1 to 2 µg/mL (≈ 1.84 to 3.34 µM)
[4]; Table 3b (additional results), ATCC 22019, 3 replicates, MIC recorded at 48 h, read-out: MIC, C. parapsilosis ATCC 22019
  MIC: 1.01 to 2 µg/mL (≈ 1.69 to 3.34 µM)
[5]; Collectotrichum graminicola, growth inhibition at 48 hours vs 2% DMSO control, read-out: Concentration at 90% Inhibition Cg
  IC90: 0.08 µg/mL (≈ 0.134 µM)
[5]; Collectotrichum graminicola, growth inhibition vs 2% DMSO control at 48 hours, read-out: Concentration at 90% Inhibition Cg
  IC90: 0.08 µg/mL (≈ 0.134 µM)
[6]; Diplodia maydis, growth inhibition at 48 hours vs 2% DMSO control, read-out: Concentration at 90% Inhibition Dm
  IC90: 0.08 µg/mL (≈ 0.134 µM)
[6]; Diplodia maydis, growth inhibition vs 2% DMSO control at 48 hours, read-out: Concentration at 90% Inhibition Dm
  IC90: 0.08 µg/mL (≈ 0.134 µM)
[7]; [12]
  IC90: 0.08 µg/mL (≈ 0.134 µM)
[7]; Fusarium moniliforme, growth inhibition vs 2% DMSO control at 48 hours
  IC90: 0.08 µg/mL (≈ 0.134 µM)
[8]; growth inhibition at 48 hours vs 2% DMSO control, read-out: Concentration at 90% Inhibition Fv
  IC90: 0.08 µg/mL (≈ 0.134 µM)
[8]; growth inhibition vs 2% DMSO control at 48 hours, read-out: Concentration at 90% Inhibition Fv
  IC90: 0.08 µg/mL (≈ 0.134 µM)
[9]; growth inhibition at 48 hours vs 2% DMSO control, read-out: Concentration at 90% Inhibition Pc
  IC90: > 50 µg/mL
[9]; growth inhibition vs 2% DMSO control at 48 hours, read-out: Concentration at 90% Inhibition Pc
  IC90: > 50 µg/mL
[10]; mycelial plugs, growth inhibition at 48 hours vs 2% DMSO control, read-out: Concentration at 90% Inhibition Rs
  IC90: 0.08 µg/mL (≈ 0.134 µM)
[10]; mycelial plugs, growth inhibition vs 2% DMSO control at 48 hours, read-out: Concentration at 90% Inhibition Rs
  IC90: 0.08 µg/mL (≈ 0.134 µM)
[11]; Septoria tritici, growth inhibition at 48 hours vs 2% DMSO control, read-out: Concentration at 90% Inhibition St
  IC90: 10 µg/mL (≈ 16.7 µM)
[11]; Septoria tritici, growth inhibition vs 2% DMSO control at 48 hours, read-out: Concentration at 90% Inhibition St
  IC90: > 50 µg/mL
